Laboratory results from patent US20190375778A1, “ADENOSINE DERIVATIVES FOR USE IN THE TREATMENT OF CANCER” (NuCana plc, priority 2016, published 2019).

How the values were obtained:
CTS = test: ATP ViaLight cytotoxicity assay, CTS; assay type: cell-based; details: 72 h
Description: HL-60, CTS, and K-562 are leukaemia cell lines, which were obtained from the American Type Culture Collection (ATCC), Middlesex. HL-60 cell line is of acute promyelocytic leukaemia; CTS cell line is of acute myeloid leukaemia; and K-562 cell line is of chronic myeloid leukaemia.
HL-60, CTS, and K-562 cell lines were cultured in RPMI-1640 medium (Sigma Aldrich, UK), which was supplemented with 10% Fetal Bovine Serum (FBS) (PAA Laboratories), 1% amphotericin B (5.5 ml) and 1% penicillin/streptomycin (5.5 ml) (PAA Laboratories) and grown in flasks at 37° C. incubator with 5% CO2.
For inhibitor studies the cell lines were treated in the same way as described above but before treatment with drugs, a number of inhibitors were added: • 1) Nitrobenzylthioinosine (NBTI) (Sigma-Aldrich, St. Louis, Mo.) inhibits hENT1. • 2) A-134974 dihydrochloride hydrate (Sigma-Aldrich, St. Louis, Mo.) inhibits adenosine kinase. • 3) EHNA hydrochloride (Sigma-Aldrich, St. Louis, Mo.) inhibits adenosine deaminase.
[…] For inhibitor studies, 10 M concentration of each inhibitor was added before drugs and incubated for 72 hours at 37° C. with 5% CO2.
After incubation, 50 μl of cell lysis reagent was added to the 96 well plates to release the intracellular ATP, followed by 100 μl of ATP monitoring reagent (AMR). The luminescent values of each well were determined using FLUOstar OPTIMA microplate reader (BMG Labtech) which converted ATP into light by using luciferase enzyme.
(§1) The dose-response curves of cytotoxicity of the drugs was determined using non-linear regression analysis of percentage cell viability versus concentration and EC50 values were obtained. The intracellular assay was conducted in five repeats for each condition. Intracellular assay was determined using paired T test (two-tailed) analysis of 8-ChloroATP/ATP concentration and p values were obtained. Drug stability in human plasma was determined using two-way ANOVA analysis. For all the analysis, Prism Software program (GraphPad Software) was used.

[1] = Drug stability in human plasma with or without EHNA; assay type: in vitro ADME; details: for plasma concentration compared with the other compounds: human plasma, with or without EHNA
Description: 10 ml of human plasma sample (Sera laboratories, UK) was treated with 1 μM of EHNA. 1 ml from this was taken along with 1 μl of 20 µM concentration of each drug (8-Cl-A, compound A, compound B and compound D) which was added to new tubes and incubated for 2 hours at 37° C. with 5% CO2. After incubation, 100 μl of each sample was taken and 300 μl of 100% methanol was added and left on ice for 30 minutes. After 30 minutes, the mixture was centrifuged (14000 rpm, 4° C., 10 minutes), the supernatant was transferred to new tubes and evaporated under speed vac. Then the dried pellet was reconstituted in 100 μl of 10% Acetonitrile and transferred to LC-MS vials for injection in to the UPLC-MS/MS system.
as §1

T24/83 = test: Viability assay, T24/83; assay type: cell-based
Description: (§2) In vitro viability assay were performed to assess the effects of compounds on cell viability in selected cell lines over ˜72 hrs using the CellTiterGlo (CTG, Promega-G7573) assay. The tests were performed in duplicates with treatment of compounds at 9 points, 3.16 folds titration in 96 well plates over ˜72 hrs. The compound starting concentrations were 198 μM. Cell viability assay using CellTiterGlo in 96-well plate were performed. Compound treatment 72 hrs, standard growth conditions, duplicates. Compounds were dissolved to 40 mM with thawed […]. Compounds were serially diluted at 3.16 fold in thawed DMSO, and warmed to 37° C. before being dissolved in media (2 μl+200 μl). After compounds were dissolved in media, media containing compounds were warmed to 37° C. in incubator and then compounds in media were added to cell plates (50 μl+50 μl) in duplicates. The compounds' final concentrations were from […] to 19.9 nM. All compound solubilities were checked and recorded again, then the plates were transferred to CO2 tissue culture incubator immediately and incubated for 3 days. DMSO final concentration is 0.5%.

CAL27 = test: Viability assay, CAL27; assay type: cell-based
Description: as §2

[2] = with A-134974 (adenosine kinase inhibitor)

SMILES	EC50 (CTS; Control (no inhibitor))	EC50 (CTS; [2])	EC50 (CTS; with NBTI (hENT1 inhibitor))	plasma concentration compared with the other compounds [1]	Top in. % T24/83 (T24/83)	EC50 (T24/83; T24/83, read-out: Ab EC50 (μM) T24/83)	fold increase in human plasma concentration when adenosine deaminase was inhibited by EHNA ([1]; EHNA versus control)	Top in. % CAL27 (CAL27)	EC50 (CAL27; Homo sapiens, CAL-27, read-out: Ab EC50 (μM) CAL27)
C[C@H](NP(=O)(OC[C@H]1O[C@@H](n2c(Cl)nc3c(N)ncnc32)C(O)C1O)Oc1cccc2ccccc12)C(=O)OCc1ccccc1 (stereo partly drawn) [Compound D, (2S)-Benzyl 2-(((((2R,3S,4R,5R)-5-(6-amino-8-chloro-9H-purin-9-yl)-3,4-dihydroxy-tetrahydrofuran-2-yl)methoxynaphthalene-1-yloxy)phosphoryl)amino)propanoate]	2.64 µM	10.3 µM	1.46 µM	highest plasma concentration					
Nc1ncnc2c1nc(Cl)n2[C@@H]1O[C@H](COP(=O)(NCC(=O)OCc2ccccc2)Oc2ccccc2)[C@@H](O)[C@H]1O (mixture of isomers) [Compound B, Benzyl 2-(((((2R,3S,4R,5R)-5-(6-amino-8-chloro-9H-purin-9-yl)-3,4-dihydroxytetra-hydrofuran-2-yl)methoxy)(phenoxy)phosphoryl)amino)acetate]	16.3 µM		63.9 µM	low plasma concentration					
Nc1ncnc2c1nc(Cl)n2[C@@H]1O[C@H](CO)[C@@H](O)[C@H]1O [8-chloroadenosine, 8-Chloroadenosine, reference compound]	0.32 µM		5.48 µM		77.5%	2 µM	~3 fold	76.5%	1.73 µM
Nc1ncnc2c1nc(Cl)n2[C@@H]1O[C@H](COP(=O)(NCC(=O)OC2CCCCC2)Oc2ccccc2)[C@@H](O)[C@H]1O (mixture of isomers) [Compound A, Cyclohexyl 2-(((((2R,3S,4R,5R)-5-(6-amino-8-chloro-9H-purin-9-yl)-3,4-dihydroxy-tetrahydrofuran-2-yl)methoxy)(phenoxy)phosphoryl)amino)acetate]		28 µM	270 µM						
